Laboratory results: patent publication US12459940B2, “Oxazole compound as multi-targeted inhibitor of IRAK4 and BTK” (SHANGHAI FOSUN PHARMACEUTICAL INDUSTRIAL DEVELOPMENT CO., …, priority 2019, dated 2025)
Read-outs that look alike come from different tables or passages of the source.

What was measured:
human BTK = biological target: T1, human BTK (Homo sapiens, UniProt Q06187); test: In vitro BTK kinase activity, 33P isotope-labeled kinase activity assay (Reaction Biology Corp); format: biochemical; settings: 33P-ATP, 2 hours at room temperature
T1 construct: purchased Reaction Biology Corp
T1 sequence (Q06187 whole entry): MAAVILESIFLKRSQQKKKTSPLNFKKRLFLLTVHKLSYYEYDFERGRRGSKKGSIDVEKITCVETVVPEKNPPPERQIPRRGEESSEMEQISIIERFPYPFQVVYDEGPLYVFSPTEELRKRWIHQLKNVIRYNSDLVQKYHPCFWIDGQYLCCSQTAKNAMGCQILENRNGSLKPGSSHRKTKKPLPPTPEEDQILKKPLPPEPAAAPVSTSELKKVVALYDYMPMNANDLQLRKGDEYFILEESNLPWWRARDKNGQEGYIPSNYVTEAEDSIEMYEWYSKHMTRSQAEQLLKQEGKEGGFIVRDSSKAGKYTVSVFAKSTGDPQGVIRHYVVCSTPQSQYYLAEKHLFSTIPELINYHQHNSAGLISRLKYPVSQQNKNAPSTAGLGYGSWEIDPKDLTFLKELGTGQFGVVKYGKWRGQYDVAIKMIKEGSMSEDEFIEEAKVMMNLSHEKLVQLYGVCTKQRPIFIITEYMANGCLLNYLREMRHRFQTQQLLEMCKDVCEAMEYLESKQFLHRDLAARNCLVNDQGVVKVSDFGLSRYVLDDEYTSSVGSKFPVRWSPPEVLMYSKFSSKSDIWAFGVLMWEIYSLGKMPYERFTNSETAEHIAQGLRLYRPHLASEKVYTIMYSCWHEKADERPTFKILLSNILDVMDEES
Procedure: The IC50 values were determined using ^33P isotope-labeled kinase activity assay (Reaction Biology Corp) to evaluate the inhibitory ability of the tested compounds on human BTK.
(§1) Buffer conditions: 20 mM Hepes (pH 7.5), 10 mM MgCl2, 1 mM EGTA, 0.02% Brij35, 0.02 mg/mL BSA, 0.1 mM Na3VO4, 2 mM DTT, 1% DMSO.
Test procedure: At room temperature, the tested compound was dissolved in DMSO to prepare a 10 mM solution for later use. The substrate was dissolved in a newly prepared buffer solution, and the tested BTK kinase was added thereto and mixed evenly. The compound dissolved in DMSO was added to the kinase reaction mixture through Echo 550 (Acoustic technology; Nanoliter range). After incubation for 20 minutes at room temperature, ^33P-ATP was added to initiate the reaction. The reaction was carried out at room temperature for 2 hours, and the radioactivity of the reaction liquid point was detected by filtration-binding method with P81 ion exchange filter paper. The kinase activity data were expressed by comparing the kinase activity of the group containing the tested compound with the kinase activity of the blank group (only containing DMSO), and the IC50 value was obtained by curve fitting by Prism4 software (GraphPad), the experimental results are shown in Table 10.

human IRAK4 = biological target: T2, human IRAK4 (Homo sapiens, UniProt Q9NWZ3); test: In vitro IRAK4 kinase activity, 33P isotope-labeled kinase activity assay (Reaction Biology Corp); format: biochemical
T2 construct: purchased Reaction Biology Corp
T2 sequence (Q9NWZ3 1-460): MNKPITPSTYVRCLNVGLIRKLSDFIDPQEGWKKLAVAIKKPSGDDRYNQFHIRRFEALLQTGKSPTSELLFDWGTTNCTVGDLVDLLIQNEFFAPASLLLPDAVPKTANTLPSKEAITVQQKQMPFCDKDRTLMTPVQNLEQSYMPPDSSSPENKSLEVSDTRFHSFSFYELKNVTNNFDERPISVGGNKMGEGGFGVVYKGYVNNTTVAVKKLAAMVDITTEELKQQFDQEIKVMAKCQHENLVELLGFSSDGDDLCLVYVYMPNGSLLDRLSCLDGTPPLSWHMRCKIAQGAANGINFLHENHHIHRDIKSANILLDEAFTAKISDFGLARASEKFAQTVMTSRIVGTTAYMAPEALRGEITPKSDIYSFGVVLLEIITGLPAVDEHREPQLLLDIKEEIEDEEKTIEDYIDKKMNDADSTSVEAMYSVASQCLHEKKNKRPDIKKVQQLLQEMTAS
Procedure: The IC50 values were determined using ^33P isotope-labeled kinase activity assay (Reaction Biology Corp) to evaluate the inhibitory ability of the tested compounds on human IRAK4.
as §1
Test procedure: At room temperature, the tested compound was dissolved in DMSO to prepare a 10 mM solution for later use. The substrate was dissolved in a newly prepared buffer solution, and the tested IRAK4 kinase was added thereto and mixed evenly. The DMSO solution dissolved with the tested compound was added to the above reaction mixture mixed evenly using acoustic technique (Echo 550). After incubation for 15 minutes, ^33P-ATP was added to initiate the reaction.

[1] = tested on: OCI-LY10 human B-cell lymphoma cells; test: OCI-LY10 cell proliferation inhibition (CellTiter-Glo); format: cell-based; settings: OCI-Ly10, 72 h, treated for 3 days
Procedure: OCI-LY10 human B-cell lymphoma cells were cultured in a 37° C., 5% CO2 incubator. The composition of medium was IMDM (GIBCO, Cat #12440053); the supplementary compositions were 20% FBS (Hyclone, Cat #SH30084.03); 1% PenStrep (Thermo, Cat #SV30010).
The tumor cell lines OCI-LY10 and TMD8 were used to detect the effect of the compound on inhibiting tumor cell proliferation in vitro. The tumor cell line was cultured in a 37° C., 5% CO2 incubator according to the culture conditions shown, and passaged regularly, then the cells in the logarithmic growth phase were taken, counted, and spread in a 96-well plate (the cells in each well were adjusted to an appropriate concentration, a total of […] per well was added). After incubating overnight in a 37° C., 5% CO2 incubator, drugs with different concentration gradients (10 μL of drug solution was added) were added and treated for 3 days, then 50 μL of CellTiter-Glo working solution was added to each well, and the cell plate was wrapped with aluminum foil to avoid light. The culture plate was shaken on an orbital shaker for 2 minutes to induce cell lysis, and placed at room temperature for 10 minutes to stabilize the luminescence signal, then the luminescence signal was detected on the 2104 EnVision plate reader.
The Inhibition rate (IR) of the tested compound was calculated using the following formula: IR (%)=(1−(RLU compound−RLU blank control)/(RLU solvent control−RLU blank control))*100%.
The inhibition rates of different concentrations of the compounds were calculated in Excel, and then the inhibition curves were made by GraphPad Prism software and the related parameters were calculated, including the minimum inhibition rate, the maximum inhibition rate and IC50.

[2] = tested on: TNF-α production in THP-1 cells; test: THP-1 cytological TNFa ELISA assay (LPS-stimulated); format: cell-based; settings: Homo sapiens, TNF-α in culture supernatant, 150 ng/mL LPS, 18 hours
Procedure: THP-1 human acute […] leukemia cells were purchased from ATCC (Cat #TIB-202) and cultured at 37° C. in 5% CO2 incubator. The composition of medium was RPMI1640 (Gibco, Cat #22400-105), and the supplementary compositions were 10% FBS (Gibco, Cat #10091148); 1% PenStrep (Gibco, Cat #15140); 0.05 mM 2-Mercaptoethanol (Sigma, Cat #M6250).
TNF-α Elisa kit was used to detect the content of TNF-α in cell culture supernatant samples. TNF-α was produced by stimulating THP-1 cells with 150 ng/mL LPS (Sigma, Cat #L6529).
THP-1 cells cultured normally at logarithmic growth stage were seeded in a 96-well plate (Corning #3599) at a certain concentration (1*10^5/100 μL) and then put into a cell incubator for incubation. After two hours, 16.7 μL of different concentrations of the compound to be tested (8*final concentration) were added and incubated in an incubator. After one hour, 16.7 μL of 1200 ng/mL LPS was added and incubated in an incubator. After 18 hours, the culture supernatant samples were collected by centrifugation, and the content of TNF-α could be detected by TNF-α Elisa kit. Finally, OD signals (OD450-OD570) were read on envision board reader.
The OD450-OD570 signal value was converted into a percentage inhibition rate. Inhibition rate %=(ZPE−sample)/(ZPE−HPE)*100.
“HPE” refers to the OD450-OD570 signal value of the control well without LPS stimulated cells, and “ZPE” refers to the OD450-OD570 signal value of the control well with LPS stimulated cells. The IC50 value of the compound was calculated by XLFit in the excel add-in. Y=Bottom+(Top−Bottom)/(1+(IC50/X)^HillSlope). Equation: […]

[3] = 33P-ATP, 120 minutes at room temperature, read-out: IRAK4/IC50

SMILES | IC50 (human BTK) [nM] | IC50 (human IRAK4; [3]) [nM] | IC50 [1] [nM] | IC50 (human IRAK4) [nM] | IC50 [2] [nM]
CC(C)(O)CCc1cn2cc(NC(=O)c3coc(-c4ccnc(C#N)c4)n3)c(N3CCCCC3)cc2n1 [WX015] | 6.4 |  |  | 0.4 | 
Cc1cc(-c2nc(C(=O)Nc3cn4cc(CCC(=O)O)nc4cc3N3CCC(F)(F)CC3)co2)ccn1 [WX017] |  | 1.6 |  |  | 321
CC(=O)N1CCN(c2cc3nc(CCC(C)(C)O)cn3cc2NC(=O)c2coc(-c3ccnc(C)c3)n2)CC1 [WX005] |  | 1.1 |  |  | 256
Cc1cc(-c2nc(C(=O)Nc3cn4cc(CCC(C)(C)O)nc4cc3N3CCC(O)CC3)co2)ccn1 [WX006] | 47.5 |  |  | 1.2 | 107
COC(=O)N1CCN(c2cc3nc(CCC(C)(C)O)cn3cc2NC(=O)c2coc(-c3ccnc(C)c3)n2)CC1 [WX004] |  |  |  | 1.3 | 77
CC(C)(O)CCc1cn2cc(NC(=O)c3coc(-c4ccnc(C5CC5)c4)n3)c(N3CCCCC3)cc2n1 [WX012] | 6.9 | 1 |  |  | 
Cc1cc(-c2nc(C(=O)Nc3cn4cc(CCC(C)(C)O)nc4cc3N3CCC(F)(F)CC3)co2)ccn1 [WX009] | 46 |  |  | 0.7 | 
Cc1cc(-c2nc(C(=O)Nc3cn4cc(CCC(C)(C)O)nc4cc3N3CCC(CO)CC3)co2)ccn1 [WX013] | 1.4 | 0.2 |  |  | 
Cc1cc(-c2nc(C(=O)Nc3cn4cc(CCC(C)(C)O)nc4cc3N3CCOCC3)co2)ccn1 [WX002] |  |  |  | 1.2 | 
Cc1cc(-c2nc(C(=O)Nc3cn4cc(CCC(C)(C)O)nc4cc3N3CCNCC3)co2)ccn1 [WX003] |  |  |  | 2.2 | 557
Cc1cc(-c2nc(C(=O)Nc3cn4cc(CCC(C)(C)O)nc4cc3N3CCC(C)(C)CC3)co2)ccn1 [WX008] | 4.6 | 2.1 |  |  | 
Cc1cc(-c2nc(C(=O)Nc3cn4cc(CCC(=O)O)nc4cc3N3CCC(CO)CC3)co2)ccn1 [WX020] | 8.5 |  |  | 0.5 | 
CC(C)(O)CCc1cn2cc(NC(=O)c3coc(-c4ccnc(C(F)(F)F)c4)n3)c(N3CCCCC3)cc2n1 [WX010] |  | 2.4 |  |  | 332
Cc1cc(-c2nc(C(=O)Nc3cn4cc(CCC(=O)O)nc4cc3N3CCCCC3)co2)ccn1 [WX018] | 47.5 |  |  | 0.9 | 104
CC(C)c1cc(-c2nc(C(=O)Nc3cn4cc(CCC(C)(C)O)nc4cc3N3CCCCC3)co2)ccn1 [WX011] | 23.6 |  |  | 1.5 | 140
Cc1cc(-c2nc(C(=O)Nc3cn4cc(CCC(C)(C)O)nc4cc3-c3ccccc3F)co2)ccn1 [WX024] | 30.5 |  | 208 | 0.7 | 13
Cc1cc(-c2nc(C(=O)Nc3cn4cc(CCC(C)(C)O)nc4cc3C3CC3)co2)ccn1 [WX007] |  | 2 |  |  | 240
Cc1cc(-c2nc(C(=O)Nc3cn4cc(CCC(C)(C)O)nc4cc3N3CCC(CN)CC3)co2)ccn1 [WX014] | 25.7 |  |  | 0.9 | 
Cc1cc(-c2nc(C(=O)Nc3cn4cc(CCC(C)(C)O)nc4cc3-c3cccc(F)c3)co2)ccn1 [WX025] | 21.8 |  | 94 | 0.7 | 21
Cc1cc(-c2nc(C(=O)Nc3cn4cc(CCC(C)(C)O)nc4cc3C3CCCCC3)co2)ccn1 [WX022] | 43.1 |  |  | 0.7 | 

Continued, in another order:

IC50 (human BTK) [nM] | IC50 (human IRAK4; [3]) [nM] | IC50 [1] [nM] | SMILES | IC50 (human IRAK4) [nM] | IC50 [2] [nM]
29 | 1 |  | Cc1cc(-c2nc(C(=O)Nc3cn4cc(CCC(=O)O)nc4cc3-c3ccccc3)co2)ccn1 [WX039] |  | 
43.1 | 2.5 |  | Cc1cc(-c2nc(C(=O)Nc3cn4cc(CCC(C)(C)O)nc4cc3N3CCC(C(=O)O)CC3)co2)ccn1 [WX046] |  | 
3.8 |  |  | Cc1cc(-c2nc(C(=O)Nc3cn4cc(CCS(C)(=O)=O)nc4cc3N3CCCCC3)co2)ccn1 [WX042] |  | 
 |  | 209 | Cc1cc(-c2nc(C(=O)Nc3cn4cc(CCC(C)(C)O)nc4cc3-c3ccc(Cl)cc3)co2)ccn1 [WX030] |  | 
20.2 | 1.6 |  | [2H]c1c([2H])c([2H])c(-c2cc3nc(CCC(C)(C)O)cn3cc2NC(=O)c2coc(-c3ccnc(C)c3)n2)c([2H])c1[2H] [WX033] |  | 
 | 1.9 |  | CC(C)(O)CCc1cn2cc(NC(=O)c3coc(-c4ccnc(C(N)=O)c4)n3)c(N3CCCCC3)cc2n1 [WX044] |  | 
 | 8.4 |  | Cc1cc(-c2nc(C(=O)Nc3cn4cc(CCC(=O)O)nc4cc3-c3cccnc3)co2)ccn1 [WX023] |  | 
30.7 |  | 349 | Cc1cc(-c2nc(C(=O)Nc3cn4cc(CCC(C)(C)O)nc4cc3-c3ccc(F)cc3)co2)ccn1 [WX026] |  | 
39.6 |  | 96 | Cc1cc(-c2nc(C(=O)Nc3cn4cc(CCC(C)(C)O)nc4cc3-c3cccc(Cl)c3)co2)ccn1 [WX031] |  | 
26.5 |  | 386 | Cc1cc(-c2nc(C(=O)Nc3cn4cc(CCC(C)(C)O)nc4cc3-c3cccs3)co2)ccn1 [WX032] |  | 
24.2 |  | 289 | Cc1cc(-c2nc(C(=O)Nc3cn4cc(CCC(C)(C)O)nc4cc3-c3c(F)cccc3F)co2)ccn1 [WX029] |  | 
 | 11 |  | Cc1cc(-c2nc(C(=O)Nc3cn4cc(CCC(C)(C)O)nc4cc3-c3ccccc3C(N)=O)co2)ccn1 [WX027] |  | 
